# Target: T1, Axl (Homo sapiens, UniProt P30530)
# T1 construct: endogenous in cells; host or cells: HeLa cells
# T1 sequence (P30530 26-894): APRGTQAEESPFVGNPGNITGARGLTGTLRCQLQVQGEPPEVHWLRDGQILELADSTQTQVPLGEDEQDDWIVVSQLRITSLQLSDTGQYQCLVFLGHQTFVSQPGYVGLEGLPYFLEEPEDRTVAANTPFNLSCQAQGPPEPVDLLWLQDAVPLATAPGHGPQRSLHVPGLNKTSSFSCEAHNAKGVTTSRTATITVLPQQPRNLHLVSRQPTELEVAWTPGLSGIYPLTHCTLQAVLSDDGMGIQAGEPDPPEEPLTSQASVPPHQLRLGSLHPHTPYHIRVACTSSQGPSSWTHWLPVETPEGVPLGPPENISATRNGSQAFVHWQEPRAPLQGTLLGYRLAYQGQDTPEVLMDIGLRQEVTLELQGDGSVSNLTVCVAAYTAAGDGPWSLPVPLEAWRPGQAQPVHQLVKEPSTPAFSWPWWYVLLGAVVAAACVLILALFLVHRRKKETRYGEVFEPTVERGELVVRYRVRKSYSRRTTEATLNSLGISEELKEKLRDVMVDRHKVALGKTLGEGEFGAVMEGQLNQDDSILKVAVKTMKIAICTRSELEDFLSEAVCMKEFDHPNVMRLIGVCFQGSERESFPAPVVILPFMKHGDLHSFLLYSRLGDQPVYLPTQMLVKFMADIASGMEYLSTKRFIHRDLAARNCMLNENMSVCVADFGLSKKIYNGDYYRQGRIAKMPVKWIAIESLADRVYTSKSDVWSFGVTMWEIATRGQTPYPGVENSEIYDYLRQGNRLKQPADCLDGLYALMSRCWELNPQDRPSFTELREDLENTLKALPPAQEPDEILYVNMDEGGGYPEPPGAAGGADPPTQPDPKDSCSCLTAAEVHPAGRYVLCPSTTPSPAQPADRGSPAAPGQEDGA
# Assay: Phospho-Akt In-Cell Western Assay (inhibition of Axl activity after Axl-antibody cross-linking)
# Type: cell-based
# Conditions: inhibition of Axl activity; Table 1, compounds of formula (Ia); read-out: IC50
# How it was run: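 HeLa cells on poly-L-lysine, starved 24 h in 0.5% FCS DMEM with Axl/Fc 500 ng/mL, pre-treated with compound 1 h at 37 °C, then stimulated 5 min by anti-Axl/anti-mouse antibody cross-linking. Fixed cells probed for phospho-Akt with HRP secondary and chemiluminescent detection.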
row,Compound,IC50
1,"Nc1nc(Nc2ccc3c(c2)CCC(N2CC[C@@H](F)C2)CC3)nn1-c1cc2c(nn1)-c1ccccc1CCC2 (stereo partly drawn) [Compound 222, 1-(6,7-dihydro-5H-benzo[6,7]cyclohepta[1,2-c]pyridazin-3-yl)-N^3-(7-(3-(R)-fluoropyrrolidin-1-yl)-6,7,8,9-tetrahydro-5H-benzo[7]annulene-2-yl)-1H-1,2,4-triazole-3,5-diamine]",< 1000 nM
2,"Nc1nc(Nc2ccc3c(c2)CCC(=O)CC3)nn1-c1cc2c(nn1)-c1ccccc1CCC2 [Compound 223, 1-(6,7-dihydro-5H-benzo[6,7]cyclohepta[1,2-c]pyridazin-3-yl)-N^3-(7-oxo-6,7,8,9-tetrahydro-5H-benzo[7]annulene-2-yl)-1H-1,2,4-triazole-3,5-diamine]",< 1000 nM
3,"Nc1nc(Nc2ccc3c(c2)CCC(NC2CCCCC2)CC3)nn1-c1cc2c(nn1)-c1ccccc1CCC2 (stereo not shown) [Compound 224, 1-(6,7-dihydro-5H-benzo[6,7]cyclohepta[1,2-c]pyridazin-3-yl)-N^3-(7-cyclohexylamino-6,7,8,9-tetrahydro-5H-benzo[7]annulene-2-yl)-1H-1,2,4-triazole-3,5-diamine]",< 1000 nM
4,"Nc1nc(Nc2ccc3c(c2)CCC(NC2CC2)CC3)nn1-c1cc2c(nn1)-c1ccccc1CCC2 (stereo not shown) [Compound 225, 1-(6,7-dihydro-5H-benzo[6,7]cyclohepta[1,2-c]pyridazin-3-yl)-N^3-(7-cyclopropylamino-6,7,8,9-tetrahydro-5H-benzo[7]annulene-2-yl)-1H-1,2,4-triazole-3,5-diamine]",< 1000 nM
5,"Nc1nc(Nc2ccc3c(c2)CCC(O)CC3)nn1-c1cc2c(nn1)-c1ccccc1CCC2 (stereo not shown) [Compound 226, 1-(6,7-dihydro-5H-benzo[6,7]cyclohepta[1,2-c]pyridazin-3-yl)-N^3-(7-hydroxy-6,7,8,9-tetrahydro-5H-benzo[7]annulene-2-yl)-1H-1,2,4-triazole-3,5-diamine]",< 1000 nM
6,"CN1CCN(C2CCc3ccc(Nc4nc(N)n(-c5cc6c(nn5)-c5ccccc5CCC6)n4)cc3CC2)CC1 (stereo not shown) [Compound 227, 1-(6,7-dihydro-5H-benzo[6,7]cyclohepta[1,2-c]pyridazin-3-yl)-N^3-(7-(4-methylpiperazin-1-yl)-6,7,8,9-tetrahydro-5H-benzo[7]annulene-2-yl)-1H-1,2,4-triazole-3,5-diamine]",< 1000 nM
7,"Nc1nc(Nc2ccc3c(c2)CCC(NCC2CCCO2)CC3)nn1-c1cc2c(nn1)-c1ccccc1CCC2 (stereo not shown) [Compound 228, 1-(6,7-dihydro-5H-benzo[6,7]cyclohepta[1,2-c]pyridazin-3-yl)-N^3-(7-(tetrahydrofuran-2-ylmethyl)amino-6,7,8,9-tetrahydro-5H-benzo[7]annulene-2-yl)-1H-1,2,4-triazole-3,5-diamine]",< 1000 nM
8,"Nc1nc(Nc2ccc3c(c2)CCC(NC2CCC2)CC3)nn1-c1cc2c(nn1)-c1ccccc1CCC2 (stereo not shown) [Compound 229, 1-(6,7-dihydro-5H-benzo[6,7]cyclohepta[1,2-c]pyridazin-3-yl)-N^3-(7-cyclobutylamino-6,7,8,9-tetrahydro-5H-benzo[7]annulene-2-yl)-1H-1,2,4-triazole-3,5-diamine]",< 1000 nM
9,"Nc1nc(Nc2ccc3c(c2)CCC(NCC2CC2)CC3)nn1-c1cc2c(nn1)-c1ccccc1CCC2 (stereo not shown) [Compound 230, 1-(6,7-dihydro-5H-benzo[6,7]cyclohepta[1,2-c]pyridazin-3-yl)-N^3-(7-(cyclopropylmethyl)amino-6,7,8,9-tetrahydro-5H-benzo[7]annulene-2-yl)-1H-1,2,4-triazole-3,5-diamine]",< 1000 nM
10,"CCN(CC)CCN(C)C1CCc2ccc(Nc3nc(N)n(-c4cc5c(nn4)-c4ccccc4CCC5)n3)cc2CC1 (stereo not shown) [Compound 231, 1-(6,7-dihydro-5H-benzo[6,7]cyclohepta[1,2-c]pyridazin-3-yl)-N^3-(7-(2-(diethylamino)ethyl)methyl-amino-6,7,8,9-tetrahydro-5H-benzo[7]annulene-2-yl)-1H-1,2,4-triazole-3,5-diamine]",< 1000 nM
11,"Nc1nc(Nc2ccc3c(c2)CCC(N2CCC(N4CCCC4)CC2)CC3)nn1-c1cc2c(nn1)-c1ccccc1CCC2 (stereo not shown) [Compound 232, 1-(6,7-dihydro-5H-benzo[6,7]cyclohepta[1,2-c]pyridazin-3-yl)-N^3-(7-(4-pyrrolidin-1-ylpiperidin-1-yl)-6,7,8,9-tetrahydro-5H-benzo[7]annulene-2-yl)-1H-1,2,4-triazole-3,5-diamine]",< 1000 nM
12,"Nc1nc(Nc2ccc3c(c2)CCC(N2CCC(CN4CCCCC4)CC2)CC3)nn1-c1cc2c(nn1)-c1ccccc1CCC2 (stereo not shown) [Compound 233, 1-(6,7-dihydro-5H-benzo[6,7]cyclohepta[1,2-c]pyridazin-3-yl)-N^3-(7-(4-(piperidin-1-ylmethyl)piperidin-1-yl)-6,7,8,9-tetrahydro-5H-benzo[7]annulene-2-yl)-1H-1,2,4-triazole-3,5-diamine]",< 1000 nM
13,"Nc1nc(Nc2ccc3c(c2)CCC(N)CC3)nn1-c1cc2c(nn1)-c1ccccc1CCC2 (stereo not shown) [Compound 234, 1-(6,7-dihydro-5H-benzo[6,7]cyclohepta[1,2-c]pyridazin-3-yl)-N^3-(7-amino-6,7,8,9-tetrahydro-5H-benzo[7]annulene-2-yl)-1H-1,2,4-triazole-3,5-diamine]",< 1000 nM
14,CN(C)CCNC1CCc2ccc(Nc3nc(N)n(-c4cc5c(nn4)-c4ccccc4CCC5)n3)cc2CC1 (stereo not shown) [Compound 235],< 1000 nM
15,"Nc1nc(Nc2ccc(C3CCN(C4CC5CCC4C5)CC3)cc2)nn1-c1cc2c(nn1)-c1ccccc1SCC2 (stereo not shown) [Compound 236, 1-(6,7-dihydro-5H-benzo[2,3]thiepino[4,5-c]pyridazin-3-yl)-N^3-(4-(1-bicyclo[2.2.1]heptan-2-yl)-piperidin-4-ylphenyl)-1H-1,2,4-triazole-3,5-diamine]",< 1000 nM
16,"Nc1nc(Nc2ccc3c(c2)CCC(NCC(=O)O)CC3)nn1-c1cc2c(nn1)-c1ccccc1CCC2 (stereo not shown) [Compound 237, 1-(6,7-dihydro-5H-benzo[6,7]cyclohepta[1,2-c]pyridazin-3-yl)-N^3-(7-(carboxymethyl)amino-6,7,8,9-tetrahydro-5H-benzo[7]annulene-2-yl)-1H-1,2,4-triazole-3,5-diamine]",> 20000 nM
17,"Nc1nc(Nc2ccc(N3CCC(N4CCCC4)CC3)c(F)c2)nn1-c1cc(-c2ccccc2)c2c(n1)-c1ccccc1CCC2 [Compound 238, 1-(4-phenyl-6,7-dihydro-5H-benzo[6,7]cyclohepta[1,2-b]pyridin-2-yl)-N^3-(3-fluoro-4-(4-pyrrolidin-1-ylpiperidin-1-yl)phenyl)-1H-1,2,4-triazole-3,5-diamine]",1000 to 10000 nM
18,"COc1cc2ncnc(-n3nc(Nc4cnc5c(c4)CC4(CCC5)OCCO4)nc3N)c2cc1OC [Compound 239, 1-(6,7-dimethoxy-quinazolin-4-yl)-N^3-(5,7,8,9-tetrahydrospiro[cyclohepta[b]pyridine-6,2′-[1,3]dioxolane]-3-yl)-1H-1,2,4-triazole-3,5-diamine]",1000 to 10000 nM
19,"Cc1csc2c(-n3nc(Nc4cnc5c(c4)CC4(CCC5)OCCO4)nc3N)nc(Cl)nc12 [Compound 240, 1-(2-chloro-7-methylthieno[3,2-d]pyrimidin-4-yl)-N^3-(5,7,8,9-tetrahydrospiro[cyclohepta[b]pyridine-6,2′-[1,3]dioxolane]-3-yl)-1H-1,2,4-triazole-3,5-diamine]",< 1000 nM
